Source: publication PMC7278776, “Multidrug Resistance Modulation Activity of Silybin Derivatives and Their Anti-Inflammatory Potential” (Antioxidants, 2020)

Assays:
[1] = parameters: method as in PMID 15465345, PMID 19138735; settings: cited from earlier work
ABCB1 (P-gp) = assay: ABCB1 mRNA expression (real-time PCR); format: cell-based, human; settings: 10 µM, 48 h, without doxorubicin
Experimental: (§1) The A2780/DOX cell line was seeded into 5 cm Petri dishes with DMEM medium at 1 × 10^5 cell/mL. […] After 48 h of treatment, the cells were washed with PBS and harvested using the standard trypsin-EDTA procedure. The harvested cells were centrifuged (3200× g; 10 min, 4 °C). The supernatant was discarded, and the pellets were washed with 1.5 mL of cooled PBS (5400× g; 10 min, 4 °C). The washing step was repeated with 1 mL of PBS and the cells were centrifuged again (10,000× g; 3 min, 4 °C). Afterwards, the pellets were resuspended in 1 mL of Trizol (Invitrogen, Carlsbad, CA, USA) and transferred into pre-cooled RNase-free microfuge tubes. The samples were stored at −80 °C.
(§2) A Quant-iT RiboGreen RNA Assay Kit (Invitrogen) was used to determine the RNA concentration using the Infinite M200 plate reader (Tecan, Männedor, Switzerland). The cDNA was prepared from 0.5 µg of total RNA using a RevertAid First Strand Synthesis cDNA Kit (MBI Fermentas, Vilnius, Lithuania). The amplification of the ubiquitin C gene fragment was used to determine the quality of cDNA.
(§3) The experiment was performed using the ViiA7 Real-Time polymerase chain reaction (PCR) System (Life Technologies, Camarillo, CA, USA) with a 384-well block. Before quantitative real-time PCR, the master mix was prepared by mixing 2 µL of 8 × diluted cDNA, 1.75 µL of RNase free water, 1 µL of 5 × HotFIREPol Probe quantitative PCR Mix Plus (Solis Biodyne, Tartu, Estonia) and 0.25 µL of specific 20 × TaqMan Gene Expression Assay (Life Technologies), giving 5 µL of final reaction volume. […] After each extension phase, the fluorescence values were acquired. Duplicate samples were used for measurement and samples with a standard deviation of duplicates > 1.0 cycle threshold (Ct) were re-analyzed. The real time PCR procedure was maintained according to MIQE (Minimum information for publication of quantitative real-time PCR experiments) guidelines. […]

ABCC2 (MRP2) = assay: ABCC2 mRNA expression (real-time PCR); format: cell-based, human; settings: 10 µM, 48 h, without doxorubicin
Experimental: as §1, §2, §3

| Structure (SMILES) | inhibition of lipid peroxidation compared to silybin [1] [fold] | downregulation of ABCB1 (P-gp) expression (ABCB1 (P-gp)) [%] | ABCB1 Expression Difference (ABCB1 (P-gp); A2780/DOX) | ABCB1 Treated vs. Untreated (ABCB1 (P-gp); A2780/DOX) | downregulation of ABCC2 (MRP2) expression (ABCC2 (MRP2)) [%] | ABCC2 Expression Difference (ABCC2 (MRP2); A2780/DOX) | ABCC2 Treated vs. Untreated (ABCC2 (MRP2); A2780/DOX) |
| --- | --- | --- | --- | --- | --- | --- | --- |
| COc1cc(C2Oc3cc(-c4oc5cc(O)cc(O)c5c(=O)c4O)ccc3OC2CO)ccc1O (stereo not shown) [Dehydrosilybin AB, 2,3-dehydrosilybin] | 10 | – | – | – | – | – | – |
| COc1cc([C@@H]2Oc3cc([C@H]4Oc5cc(O)cc(O)c5C(=O)[C@@H]4O)ccc3O[C@H]2CO)ccc1O [Silybin B, silybin B] | – | 79 | 0.208 | DOWN | 66 | 0.341 | DOWN |
